Test results as given in PubChem BioAssay (NCI).
Several values for one entry are separate records, joined by “and”; a condition that tells them apart may be missing. Equal entries are not always repeated.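 1) Cells in 96-well plates. 2) Compound, 48 h, 5 concentrations. 3) Linear interpolation between surrounding doses. 4) Unreached endpoint = highest concentration. Abbreviation: GI50, concentration required for 50% inhibition of growth. TGI denotes the concentration required for complete inhibition of growth.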

Tests used:
Test in all cases: inhibition of tumour cell growth, NCI panel, 48 h
TK-10 renal = system: TK-10 renal
PC-3 prostate = system: PC-3 prostate
MOLT-4 leukemia = system: MOLT-4 leukemia
NCI-H460 lung = system: NCI-H460 lung
HCT-116 colon = system: HCT-116 colon
SK-MEL-28 melanoma = system: SK-MEL-28 melanoma
A498 renal = system: A498 renal
CAKI-1 renal = system: CAKI-1 renal
OVCAR-8 ovarian = system: OVCAR-8 ovarian
HT29 colon = system: HT29 colon
U251 CNS = system: U251 CNS
HOP-62 NSCLC = system: HOP-62 NSCLC
SK-OV-3 ovarian = system: SK-OV-3 ovarian

Compound | TGI (TK-10 renal) | TGI (PC-3 prostate) | TGI (MOLT-4 leukemia) | TGI (NCI-H460 lung) | TGI (HCT-116 colon) | TGI (SK-MEL-28 melanoma) | TGI (A498 renal) | TGI (CAKI-1 renal) | TGI (OVCAR-8 ovarian) | TGI (HT29 colon) | TGI (U251 CNS) | TGI (HOP-62 NSCLC) | TGI (SK-OV-3 ovarian) | GI50 (HOP-62 NSCLC) | GI50 (TK-10 renal) | GI50 (MOLT-4 leukemia) | GI50 (NCI-H460 lung) | GI50 (SK-MEL-28 melanoma) | GI50 (A498 renal) | GI50 (SK-OV-3 ovarian)
CN(C)CCOc1ccc(-c2c(Oc3ccccc3)c(=O)oc3ccccc23)cc1 | 26.4 µM | 23.1 µM | 20.5 µM | 29 µM | 15.5 µM | 25.5 µM | 27 µM | 48.7 µM | 29.6 µM | 25.4 µM | 17.3 µM | – | – | – | – | – | – | – | – | –
CCOC1NC(=O)Oc2cc3ccccc3cc21 (centres undefined) | > 100 µM | > 100 µM | > 100 µM | > 100 µM | > 100 µM | > 100 µM | – | – | > 100 µM | > 100 µM | > 100 µM | > 100 µM | > 100 µM | – | – | – | – | – | – | –
C=CCN1/C(=C2\SC(=S)N(c3ccc(C)cc3)C2=O)Sc2c1ncn(C)c2=O | > 100 µM | – | > 100 µM | > 100 µM | > 100 µM | – | > 100 µM | > 100 µM | > 100 µM | > 100 µM | > 100 µM | > 100 µM | > 100 µM | – | – | – | – | – | – | –
Cc1ccc(-c2cc[n+]3c(n2)oc2ccccc23)cc1 | – | – | 31.3 µM | > 100 µM | > 100 µM | 57.8 µM | 65.4 µM | > 100 µM | 41.2 µM | – | > 100 µM | – | > 100 µM | – | – | – | – | – | – | –
CC1(C)C2CCC1C(=O)[C@@]1(C=CC(=O)CC1)C2 (some centres undefined) | > 100 µM | > 100 µM | > 100 µM | > 100 µM | > 100 µM | > 100 µM | – | – | > 100 µM | > 100 µM | > 100 µM | > 100 µM | > 100 µM | – | – | – | – | – | – | –
Cn1c2ccccc2c2cc(N3CCCC3)c3c(c21)C(=O)N(c1ccccc1)C3=O | > 100 µM | > 100 µM | > 100 µM | > 100 µM | > 100 µM | > 100 µM | > 100 µM | – | > 100 µM | > 100 µM | > 100 µM | > 100 µM | > 100 µM | – | – | – | – | – | – | –
C=C(C)[C@H]1C2=CC(C)=C(O2)[C@@H](O)[C@H](C(=C)C)CCC2=C[C@H]1OC2=O | > 100 µM | > 100 µM | > 100 µM | > 100 µM | – | > 100 µM | > 100 µM | > 100 µM | > 100 µM | – | > 100 µM | – | – | – | – | – | – | – | – | –
Cc1c(Cl)cccc1N=NC(=O)NNc1cccc(Cl)c1C | 29.6 µM | 26.1 µM | 46.7 µM | 31.2 µM | 28.6 µM | 30.1 µM | 27.7 µM | – | 26.6 µM | 35.3 µM | 29.7 µM | 25.4 µM | – | – | – | – | – | – | – | –
CCOC(=O)[C@@]1(C)CC(O)C(=O)N1C (some centres undefined) | > 100 µM | > 100 µM | > 100 µM | – | > 100 µM | > 100 µM | – | > 100 µM | > 100 µM | > 100 µM | > 100 µM | > 100 µM | > 100 µM | – | – | – | – | – | – | –
O=c1[nH]nc(Nc2ccccc2)c2nnn(C3CCCCC3)c12 | > 100 µM | > 100 µM | > 100 µM | > 100 µM | > 100 µM | > 100 µM | – | > 100 µM | > 100 µM | > 100 µM | > 100 µM | > 100 µM | – | – | – | – | – | – | – | –
Cc1ccc(S(=O)(=O)C2=c3nc4ccccc4cc3=C3C(=O)c4ccccc4C(=O)C32)cc1 (centres undefined) | > 100 µM | – | > 100 µM | > 100 µM | > 100 µM | > 100 µM | > 100 µM | > 100 µM | > 100 µM | – | > 100 µM | > 100 µM | > 100 µM | – | – | – | – | – | – | –
OC12c3ccccc3C1CCCCCCCCCC21OCCO1 (centres undefined) | > 100 µM | – | > 100 µM | > 100 µM | > 100 µM | > 100 µM | > 100 µM | > 100 µM | > 100 µM | > 100 µM | > 100 µM | > 100 µM | > 100 µM | – | – | – | – | – | – | –
N#Cc1cc(Sc2ccc(N)c(C#N)c2)ccc1N | > 100 µM | > 100 µM | > 100 µM | 31.1 µM | 34.4 µM | > 100 µM | > 100 µM | – | 55.2 µM | 30.9 µM | > 100 µM | > 100 µM | > 100 µM | – | – | – | – | – | – | –
CCOC(=O)C(Cc1ccccc1)NC(=O)c1[nH]cnc1/N=N/N(C)C (centres undefined) | – | – | > 100 µM | > 100 µM | > 100 µM | > 100 µM | > 100 µM | > 100 µM | > 100 µM | > 100 µM | > 100 µM | > 100 µM | > 100 µM | – | – | – | – | – | – | –
CCCCCCCCCCCCCCCCCCNC(=S)/N=C/c1c(O)c2ccccc2[nH]c1=O | 56.1 µM | – | 29.7 µM | 32.6 µM | 30.4 µM | 40.4 µM | 36.9 µM | 31.6 µM | 29.6 µM | 30.9 µM | 40.5 µM | 33 µM | 49.1 µM | – | – | – | – | – | – | –
C#CC1(O)CCC2[C@@H]3CCc4cc(Oc5nc(F)nc(-c6c7ccccc7c(SCC)n6CCC)n5)ccc4C3CC[C@@]21C (some centres undefined) | > 100 µM | – | > 100 µM | > 100 µM | > 100 µM | > 100 µM | > 100 µM | – | > 100 µM | > 100 µM | > 100 µM | > 100 µM | > 100 µM | – | – | – | – | – | – | –
COC(=O)c1c2c(cc3c1CC1(Cc4cc5c(c(C(C)=O)c4C1)CCCC5)C3)CCCC2 (centres undefined) | > 100 µM | > 100 µM | – | – | > 100 µM | – | > 100 µM | – | > 100 µM | > 100 µM | > 100 µM | > 100 µM | > 100 µM | – | – | – | – | – | – | –
O=[N+]([O-])/C=C(\CS(=O)(=O)c1ccccc1)c1ccc2c(c1)OCO2 | – | – | > 100 µM | – | > 100 µM | > 100 µM | 81.2 µM | 93.5 µM | > 100 µM | > 100 µM | > 100 µM | > 100 µM | > 100 µM | – | – | – | – | – | – | –
COc1c(Br)cc2ccccc2c1-c1c(OC)c(Br)cc2ccccc12 | > 100 µM | > 100 µM | > 100 µM | > 100 µM | – | > 100 µM | > 100 µM | > 100 µM | > 100 µM | > 100 µM | > 100 µM | > 100 µM | > 100 µM | – | – | – | – | – | – | –
COC(=O)C1CCC(=O)N1C(c1cc(OC)c(OC)c(OC)c1)c1cccc2ccccc12 (centres undefined) | > 100 µM | > 100 µM | > 100 µM | > 100 µM | > 100 µM | > 100 µM | > 100 µM | – | > 100 µM | > 100 µM | > 100 µM | > 100 µM | > 100 µM | – | – | – | – | – | – | –
Nc1ccc2ccc(N3CCNCC3)nc2n1 | > 100 µM | > 100 µM | > 100 µM | > 100 µM | > 100 µM | > 100 µM | – | > 100 µM | > 100 µM | > 100 µM | > 100 µM | > 100 µM | > 100 µM | – | – | – | – | – | – | –
O=C(O)c1c2c(cc3c1CC1(Cc4cc5c(cc4C1=O)CCC5)C3)CCC2 (centres undefined) | > 100 µM | > 100 µM | > 100 µM | > 100 µM | > 100 µM | 82.5 µM | > 100 µM | – | > 100 µM | > 100 µM | > 100 µM | > 100 µM | > 100 µM | – | – | – | – | – | – | –
Cc1nc2ccc(F)cc2c(Cl)c1CCCl | > 100 µM | > 100 µM | 98.6 µM | > 100 µM | 92.8 µM | > 100 µM | > 100 µM | – | > 100 µM | > 100 µM | > 100 µM | > 100 µM | – | – | – | – | – | – | – | –
c1ccc(SC23C4C5C6C4C2C6C53)nc1 (centres undefined) | > 100 µM | – | > 100 µM | > 100 µM | > 100 µM | > 100 µM | > 100 µM | > 100 µM | > 100 µM | > 100 µM | > 100 µM | > 100 µM | > 100 µM | – | – | – | – | – | – | –
CCn1c2c(c3ccccc31)[C@@H](c1ccc(Cl)cc1)CC1C(=O)N(c3ccccc3)C(=O)C21 (some centres undefined) | > 100 µM | – | > 100 µM | > 100 µM | > 100 µM | > 100 µM | > 100 µM | > 100 µM | > 100 µM | > 100 µM | > 100 µM | > 100 µM | > 100 µM | – | – | – | – | – | – | –
COC(=O)CCNc1c2ccccc2nc2cccc([N+](=O)[O-])c12 | 0.0312 µM | 0.126 µM | 0.117 µM and 0.0124 µM | 0.234 µM | 1.11 µM | 0.0112 µM and 0.0918 µM | 0.0585 µM | – | – | – | 0.127 µM and 0.0318 µM | 0.00667 µM | 0.405 µM and 0.18 µM | 0.0015 µM | 0.00304 µM | 0.00107 µM | 0.0138 µM | 0.0029 µM | 0.0185 µM | 0.0405 µM
C#C[C@@]1(O)CCCC2=CC3(CC[C@]21C)SCCS3 | > 100 µM | > 100 µM | > 100 µM | > 100 µM | > 100 µM | > 100 µM | > 100 µM | – | > 100 µM | > 100 µM | > 100 µM | > 100 µM | > 100 µM | – | – | – | – | – | – | –
COC(=O)C(Cc1c[nH]c2ccccc12)NP(=O)(O)OCC1OC(n2cc(Br)c(=O)[nH]c2=O)CC1O (centres undefined) | > 100 µM | > 100 µM | > 100 µM | > 100 µM | > 100 µM | > 100 µM | > 100 µM | – | > 100 µM | > 100 µM | > 100 µM | > 100 µM | > 100 µM | – | – | – | – | – | – | –
Cc1cc2c(c(S(=O)(=O)c3ccccc3[N+](=O)[O-])c1)NCCC2 | > 100 µM | > 100 µM | – | > 100 µM | – | > 100 µM | > 100 µM | – | > 100 µM | > 100 µM | > 100 µM | > 100 µM | > 100 µM | – | – | – | – | – | – | –
